Test systems include ACHN; CAKI-1; COLO 205; HCT-15; HOP-62; HOP-92; KM12; LOX IMVI; M14; MDA-MB-435; NCI-H226; OVCAR-4; RXF 393; SF-268; SK-MEL-2; SW-620; HT-29; NCI-H23; RPMI-8226; SF-539.
Holding throughout (assay): NCI anticancer screen, dose series, 48 h

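Tested at 5 concentrations; 48 h exposure; 96-well plates; endpoints linearly interpolated, else capped at highest concentration. GI50 marks 50% less growth.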 Activity calls are given as the source filed them. Cut-off read from the data, not from the text of the source: active = GI50 up to about 1.1 µM and inactive = higher.

These results are taken from ChEMBL document CHEMBL1201862, “PubChem BioAssay data set” (2004).

Turning to `CC1(C)[C@@H](Cn2cc(I)c(=O)[nH]c2=O)CC[C@@]1(C)CO`, the GI50 with ACHN is > 100 µM (inactive); in the assay with CAKI-1 it was > 100 µM (inactive); in the assay with COLO 205, > 100 µM (inactive); in the assay on HCT-15, > 100 µM; in the assay with HOP-62 it was > 100 µM (inactive); in the assay on HOP-92 it was > 100 µM (inactive). For the same compound, the GI50 with KM12, in the assay with LOX IMVI, with M14, in the assay with MDA-MB-435, in the assay on NCI-H226 and in the assay with OVCAR-4 was > 100 µM (inactive) each time. In addition, the GI50 in the assay with RXF 393, in the assay with SF-268, in the assay on SK-MEL-2 and in the assay on SW-620 was > 100 µM (inactive) throughout.
With `CCc1c[n+]([O-])c(C)cc1[N+](=O)[O-]`, the GI50 is 17.7 µM (inactive) in the assay on ACHN; 40.4 µM (inactive) in the assay on CAKI-1; 15.6 µM (inactive) in the assay with COLO 205; 18.8 µM in the assay on HCT-15; > 100 µM (inactive) in the assay on HOP-62; 35.8 µM (inactive) in the assay on HOP-92. Also, the GI50 in the assay on HT-29 was 82.8 µM (inactive); with KM12, 45.4 µM (inactive); with LOX IMVI it was > 100 µM (inactive); with M14, 40.2 µM (inactive); in the assay on MDA-MB-435, 57.9 µM (inactive); in the assay on NCI-H23, 74.1 µM (inactive). For the same compound, the GI50 is 33.5 µM (inactive) in the assay on RPMI-8226; 22.4 µM (inactive) in the assay with RXF 393; > 100 µM (inactive) in the assay on SF-268; > 100 µM (inactive) in the assay on SF-539; 21 µM (inactive) with SK-MEL-2; 33.3 µM (inactive) in the assay on SW-620.
Regarding `O=C1CC2C=CC(O)C(C1)C2` (centres undefined), the GI50 in the assay with ACHN is > 100 µM (inactive); with COLO 205, > 100 µM (inactive); with HCT-15, > 100 µM; with HOP-62, > 100 µM (inactive); with HT-29 it was > 100 µM (inactive); with KM12, > 100 µM (inactive). Moreover, the GI50 with LOX IMVI is > 100 µM (inactive); with M14, > 100 µM (inactive); with MDA-MB-435 it was > 100 µM (inactive); in the assay with NCI-H226 it was 37.4 µM (inactive); in the assay with NCI-H23, > 100 µM (inactive); with OVCAR-4, > 100 µM (inactive). In addition, the GI50 in the assay on RPMI-8226 is > 100 µM (inactive); with RXF 393, 3.49 µM (inactive); with SF-268, > 100 µM (inactive); in the assay with SF-539 it was > 100 µM (inactive); with SK-MEL-2, > 100 µM (inactive); in the assay with SW-620 it was > 100 µM (inactive).
In the case of `Cc1c(/C=N/NC(=S)Nc2ccc(Cl)cc2)c(=O)n(-c2ccccc2)n1C`, the GI50 with ACHN is 16.1 µM (inactive); with CAKI-1, 9.75 µM (inactive); with COLO 205, > 71.1 µM (inactive); with HCT-15, 17.9 µM; with HOP-62, 14.3 µM (inactive); in the assay on HT-29, > 100 µM (inactive). Besides, the GI50 with KM12 was > 47.6 µM (inactive); with LOX IMVI it was 32.6 µM (inactive); in the assay on M14, > 62.8 µM (inactive); with MDA-MB-435 it was > 100 µM (inactive); with NCI-H226, 18.7 µM (inactive); with NCI-H23 it was 24.8 µM (inactive). Moreover, the GI50 in the assay with OVCAR-4 was 24.5 µM (inactive); in the assay with RPMI-8226 it was 39.1 µM (inactive); in the assay with RXF 393, 14.8 µM (inactive); with SF-268, 15.8 µM (inactive); in the assay on SF-539, 15 µM (inactive); in the assay on SK-MEL-2, 21.6 µM (inactive). Besides, the GI50 with SW-620 was > 78.5 µM (inactive).
In the case of `CCOC(=O)Oc1cc2c(c(OC)c1OC)-c1ccc(SC)c(=O)cc1C(NC(=O)C(F)(F)F)CC2` (centres undefined), the GI50 with ACHN is 0.00224 µM (active); in the assay with CAKI-1, 0.0147 µM (active); in the assay on COLO 205 it was 0.0577 µM (active); with HCT-15, 0.00221 µM; in the assay on HOP-62 it was 0.00191 µM (active); in the assay on HOP-92, 0.00604 µM (active). The GI50 is < 0.001 µM (active) with HT-29; 0.00258 µM (active) with KM12; 0.00177 µM (active) in the assay with LOX IMVI; < 0.001 µM (active) in the assay on M14; < 0.001 µM (active) in the assay with MDA-MB-435; 0.00106 µM (active) in the assay with NCI-H226. Besides, the GI50 in the assay on NCI-H23 is 0.0209 µM (active); in the assay with OVCAR-4 it was 2.01 µM (inactive); in the assay on RPMI-8226 it was < 0.001 µM (active); in the assay with RXF 393, < 0.001 µM (active); in the assay on SF-268, 0.00196 µM (active); with SW-620, < 0.001 µM (active).
For the compound `C/C=C/[C@H]1O[C@@](O)([C@@H](C)[C@H](O)[C@H](C)[C@H]2OC(=O)/C(OC)=C/C(C)=C/[C@@H](C)[C@@H](O)[C@@H](CC)[C@@H](O)[C@H](C)C/C(C)=C/C=C/[C@@H]2OC)C[C@H](OC2CC(O)C(OC(N)=O)C(C)O2)[C@@H]1C` (some centres undefined), the GI50 is 0.0286 µM (active) in the assay on ACHN; 0.0532 µM (active) with CAKI-1; 0.0334 µM (active) in the assay with COLO 205; 0.0426 µM in the assay with HCT-15; < 0.0249 µM (active) with HOP-62; < 0.01 µM (active) in the assay with HT-29. In addition, the GI50 is < 0.0163 µM (active) in the assay on KM12; < 0.01 µM (active) in the assay on LOX IMVI; < 0.0161 µM (active) in the assay with M14; 0.0275 µM (active) with MDA-MB-435; 0.0336 µM (active) in the assay on NCI-H226; 7.13 µM (inactive) in the assay with NCI-H23. The GI50 with OVCAR-4 is 0.0791 µM (active); with RPMI-8226, < 0.0157 µM (active); with RXF 393, 8.87 µM (inactive); in the assay with SF-268 it was 0.0447 µM (active); in the assay with SF-539, 0.0224 µM (active); with SK-MEL-2 it was 0.0195 µM (active). Besides, the GI50 with SW-620 was < 0.022 µM (active).
For the compound `CCCCCCCCCCCCCCCCS(=O)(=O)c1ccc(NN)cc1`, the GI50 is > 10 µM (inactive) in the assay on ACHN; > 10 µM (inactive) with CAKI-1; > 10 µM (inactive) in the assay on COLO 205; > 10 µM in the assay with HCT-15; > 10 µM (inactive) with HOP-62; 7.1 µM (inactive) in the assay with HOP-92. Besides, the GI50 with HT-29 was > 10 µM (inactive); with KM12, > 10 µM (inactive); with LOX IMVI, 4.29 µM (inactive); in the assay with M14 it was > 10 µM (inactive); with MDA-MB-435, > 10 µM (inactive); with NCI-H23 it was 4.88 µM (inactive). For the same compound, the GI50 in the assay on OVCAR-4 is 8.17 µM (inactive); in the assay with RPMI-8226, 5.33 µM (inactive); in the assay with RXF 393, > 10 µM (inactive); in the assay on SF-268 it was 9.38 µM (inactive); with SF-539, 7.43 µM (inactive); in the assay on SK-MEL-2, > 10 µM (inactive). For the same compound, the GI50 with SW-620 was > 10 µM (inactive).
As to `CN(C)/C=N/CCN1CCOCC1`, the GI50 in the assay with ACHN was > 100 µM (inactive); with COLO 205, > 100 µM (inactive); in the assay on HCT-15 it was > 100 µM; with HOP-62, > 100 µM (inactive); in the assay on HOP-92, > 100 µM (inactive); with HT-29, > 100 µM (inactive). The GI50 with LOX IMVI, in the assay with M14, with MDA-MB-435, in the assay on NCI-H226, in the assay on NCI-H23 and in the assay with OVCAR-4 was > 100 µM (inactive) in each case. Also, the GI50 with RPMI-8226, with RXF 393, in the assay with SF-268, in the assay on SF-539 and with SK-MEL-2 was > 100 µM (inactive) each time.
